The source of these data is PubChem BioAssay (NCI).

Structures are written as SMILES.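 The compound was tested at five concentrations on cells cultured in 96-well plates, with a 48-hour exposure period. GI50 = concentration required for 50% inhibition of growth. TGI: total growth inhibition.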 Where only a bound is given, the exact number is not on record here.

Assay in all cases: inhibition of tumour cell growth, NCI panel, 48 h
For assay [1], the system named is CAKI-1 renal.
Assay [2] deals with IGROV1 ovarian.
In assay [3] the test system is KM12 colon.
The subject of assay [4] is M19-MEL melanoma.
Assay [5] deals with OVCAR-5 ovarian.
Assay [6] has as its system SF-295 CNS.
For assay [7], the system named is SK-MEL-2 melanoma.
Assay [8] deals with UO-31 renal.
In assay [9] the test system is HS 578T breast.
The test system of assay [10] is HOP-18 NSCLC.

Turning to `CC(=O)OC(C)(C)C[N+](=O)[O-]`, the TGI in assay [1], in [2], in [3], in assay [4], in assay [5] and in assay [6] was over 100 µM each time. For the same compound, the TGI in assay [7] and in [8] was over 100 µM throughout.
Regarding `CCN(CC)CCOc1ccc(NC(=O)C(C(C)C)N2C(=O)/C(=C/c3ccc(Br)cc3)SC2=S)cc1` (centres undefined), the GI50 was 4.38 µM in assay [1]; 12.1 µM in [9]; 2.61 µM in [2]; 3.19 µM in assay [3]; 2.89 µM in assay [5]; 3.41 µM in [6]. Moreover, the GI50 was 14.9 µM in assay [7] and 2.72 µM in [8]. Also, the TGI in [1] worked out at 17.1 µM; in assay [9], 35.1 µM; in assay [2] it was 8.03 µM; in assay [3] it was 11.3 µM; in [5] it was 10.4 µM; in assay [6], 11.7 µM. Also, the TGI was 30.9 µM in [7] and 12.6 µM in assay [8].
Turning to `O=C(Nc1cccc(-n2ccc3c(NC(=O)c4ccccc4)nccc32)c1)c1ccc(Cl)c(Cl)c1`, the GI50 in [1] was 0.0531 µM; in assay [9] it was 0.0822 µM; in assay [2], 0.25 µM; in assay [3], 0.0554 µM; in assay [5], 0.476 µM; in [6] it was 0.0645 µM. Further, the results for the GI50 in assay [7] and in assay [8] were 1.12 µM and 0.573 µM, respectively. Also, the TGI came to 1.9 µM in assay [1]; 1.31 µM in assay [9]; 1.9 µM in assay [2]; 0.942 µM in assay [3]; 1.71 µM in [5]; 1.31 µM in assay [6]. Moreover, the TGI in assay [7] stood at 2.79 µM; in [8], 2.18 µM.
Consider `COc1ccc2c(c1)C(=O)/C(=C/c1cccc(OCC(=O)c3ccc([N+](=O)[O-])cc3)c1)CO2`, for which the GI50 in [1] is 3.85 µM; in [9], 2.73 µM; in assay [2], 1.48 µM; in assay [3], 1.56 µM; in [5], 2.34 µM; in assay [6], 2.26 µM. The figures for the GI50 in [7] and in assay [8] were 1.64 µM and 1.47 µM, respectively. The TGI is 10.4 µM in [1]; 12.2 µM in [9]; 3.86 µM in assay [2]; 3.26 µM in assay [3]; 5.08 µM in [5]; 7.1 µM in assay [6]. Besides, the results for the TGI in [7] and in assay [8] were 4.2 µM and 4.02 µM, respectively.
In the case of `CN(C)c1ccc(/C=N/n2c(CCCCc3n[nH]c(=S)n3/N=C/c3ccc(N(C)C)cc3)n[nH]c2=S)cc1`, the GI50 in assay [1] was over 100 µM; in [9] it was 73.8 µM; in assay [2], over 100 µM; in assay [3] it was over 100 µM; in assay [5] it was over 100 µM; in assay [6] it was over 100 µM. Moreover, the GI50 in [7] and in assay [8] was over 100 µM in each case. The TGI in assay [1], in assay [9], in [2], in assay [3], in [5] and in assay [6] was over 100 µM in each case. Besides, the TGI in [7] and in assay [8] was over 100 µM in each case.
For `CCN(CC)CCCNc1nccc2c(C)c3[nH]c4ccncc4c(=O)c3cc12`, the TGI in assay [1] came to 16.8 µM; in assay [10], 18.7 µM; in assay [2], 21.7 µM; in [3], 15.5 µM; in assay [5], 19.7 µM; in [6] it was 28.4 µM. In addition, the results for the TGI in assay [7] and in assay [8] were 9.34 µM and 43.4 µM, respectively.
Turning to `N#Cc1ccc(O)c(C2=NCC(c3ccc(-c4ccccc4)cc3)O2)c1` (centres undefined), the GI50 is 0.106 µM in [1]; 0.867 µM in [9]; 0.478 µM in [2]; 0.462 µM in assay [3]; 0.941 µM in assay [5]; 0.335 µM in [6]. In addition, the GI50 was 0.746 µM in assay [7] and 0.406 µM in assay [8]. Also, the TGI in assay [1] came out at 13.1 µM; in assay [9], 31.9 µM; in assay [2], 14.3 µM; in assay [3], 28.7 µM; in assay [5] it was 28.9 µM; in assay [6] it was 11.8 µM. The TGI turned out to be 15.8 µM in assay [7] and 4.13 µM in assay [8].
With `COc1ccccc1-c1ccc2c(N)c(C(=O)c3ccc4c(c3)OCO4)sc2n1`, the GI50 in [1] is 10.2 µM; in [9], 7.97 µM; in assay [2] it was 7.93 µM; in [3] it was 4.46 µM; in assay [5], 11.2 µM; in assay [6] it was 3.98 µM. The GI50 in assay [7] is 3.38 µM; in assay [8], 4.12 µM. Further, the TGI in [1] turned out to be 25.9 µM; in [9] it was 47.1 µM; in [2] it was 25.5 µM; in assay [3], 23.3 µM; in assay [5], 29.5 µM; in assay [6], 18.5 µM. Moreover, the results for the TGI in [7] and in assay [8] were 10.9 µM and 16.7 µM, respectively.
Turning to `CC[C@@]1(O)C(=O)OCc2c1cc1n(c2=O)Cc2cc3cccc(N)c3nc2-1`, the GI50 was 11.5 µM in [2]; over 100 µM in assay [3]; 13.1 µM in assay [4]; 25.8 µM in assay [5]; 4.04 µM in [6]; 29.7 µM in [7]. Further, the GI50 in assay [8] is 8.44 µM. For the same compound, the TGI was 38.8 µM in [2]; over 100 µM in assay [3]; over 100 µM in assay [4]; over 100 µM in [5]; 23.5 µM in [6]; 65.6 µM in assay [7]. This compound showed a TGI in [8] of over 100 µM.
`C=C(C)C1CC=C(C)C(O)([C@@]2(O)C[C@H](C(=C)C)CC=C2C)C1` (some centres undefined): the TGI worked out at 51.8 µM in assay [1]; 53.4 µM in assay [2]; 43.4 µM in [3]; 38.1 µM in assay [4]; 63.5 µM in assay [5]; 48.5 µM in assay [6]. Moreover, the TGI in assay [7] worked out at 35.9 µM; in assay [8], 55.9 µM.
